What was measured:
[1] = Crystal; for vapor or sublimation pressure: Calculated from knudsen effusion weight loss
[2] = Molar enthalpy of transition or fusion; conditions: Crystal; DSC
[3] = molar heat capacity at constant pressure; conditions: 101.33 kPa, Crystal, Small sample (50 mg) DSC

O=C(O)/C=C\c1ccccc1 [cis-cinnamic acid]
Conditions	Normal melting temperature [°C]	molar heat capacity at constant pressure [J/K/mol]	vapor or sublimation pressure [kPa]
[1], 306.21 K	–	–	8.16e-05
[1], 308.18 K	–	–	0.0001123
[1], 310.2 K	–	–	0.0001346
[1], 312.15 K	–	–	0.0001819
[1], 314.14 K	–	–	0.0002297
[1], 316.16 K	–	–	0.0002837
[1], 318.1 K	–	–	0.0003808
[1], 320.19 K	–	–	0.0004592
[1], 322.05 K	–	–	0.000572
[1], 324.08 K	–	–	0.0007647
[1], 326.1 K	–	–	0.0009201
[1], DTA	67.0	–	–
[3], 257.15 K	–	155	–
[3], 258.15 K	–	155.9	–
[3], 259.15 K	–	156	–
[3], 260.15 K	–	156.5	–
[3], 261.15 K	–	156.9	–
[3], 262.15 K	–	157.5	–
[3], 263.15 K	–	158.1	–
[3], 264.15 K	–	158.7	–
[3], 265.15 K	–	159.1	–
[3], 266.15 K	–	159.7	–
[3], 267.15 K	–	160.2	–
[3], 268.15 K	–	160.8	–
[3], 269.15 K	–	161.2	–
[3], 270.15 K	–	161.6	–
[3], 271.15 K	–	162.2	–
[3], 272.15 K	–	163	–
[3], 273.15 K	–	163.3	–
[3], 274.15 K	–	163.9	–
[3], 275.15 K	–	164.3	–
[3], 276.15 K	–	165.3	–
[3], 277.15 K	–	165.8	–
[3], 278.15 K	–	166.2	–
[3], 279.15 K	–	166.7	–
[3], 280.15 K	–	167.3	–
[3], 281.15 K	–	167.9	–
[3], 282.15 K	–	168.5	–
[3], 283.15 K	–	169.1	–
[3], 284.15 K	–	169.5	–
[3], 285.15 K	–	170.4	–
[3], 286.15 K	–	170.8	–
[3], 287.15 K	–	171.4	–
[3], 288.15 K	–	171.9	–
[3], 289.15 K	–	172.6	–
[3], 290.15 K	–	173.2	–
[3], 291.15 K	–	173.9	–
[3], 292.15 K	–	174.5	–
[3], 293.15 K	–	175.1	–
[3], 294.15 K	–	175.9	–
[3], 295.15 K	–	176.5	–
[3], 296.15 K	–	176.9	–
[3], 297.15 K	–	177.6	–
[3], 298.15 K	–	178.1	–
[3], 299.15 K	–	178.7	–
[3], 300.15 K	–	179.1	–
[3], 301.15 K	–	179.9	–
[3], 302.15 K	–	180.6	–
[3], 303.15 K	–	181.3	–
[3], 304.15 K	–	182.1	–
[3], 305.15 K	–	183	–
[3], 306.15 K	–	183.7	–
[3], 307.15 K	–	184.6	–
[3], 308.15 K	–	185.3	–
[3], 309.15 K	–	185.9	–
[3], 310.15 K	–	186.8	–
[3], 311.15 K	–	187.9	–
[3], 312.15 K	–	188.6	–
[3], 313.15 K	–	189.3	–
[3], 314.15 K	–	190.2	–
[3], 315.15 K	–	191.3	–
[3], 316.15 K	–	192.3	–
[3], 317.15 K	–	193.5	–
[3], 318.15 K	–	194.5	–
[3], 319.15 K	–	195.9	–
[3], 320.15 K	–	197.5	–
[3], 321.15 K	–	199.1	–
[3], 322.15 K	–	201.1	–

Conditions	Molar enthalpy of transition or fusion [kcal/mol]
[2]	4.02
